Results published in US11135320B2, “Radioligands for pretargeted pet imaging and methods of their therapeutic use” (priority 2015, dated 2021).
Several values for one entry are separate records, joined by “and”; a condition that tells them apart may be missing. Equal values may be shown once.

System: subcutaneous SW1222 xenografts (A33 antigen-expressing human colorectal carcinoma)
Assay: Pretargeted biodistribution with huA33-TCO and ^64Cu-tetrazine radioligand
Type: in vivo, athymic nude mice
Procedure: Female athymic nude mice bearing subcutaneous SW1222 (right shoulder) xenografts (100-150 mm^3, 18-21 days post-inoculation) were administered 100 μg (0.66 nmol) huA33-TCO (in 200 μL 0.9% sterile saline) via intravenous tail vein injection. […] The specific activity of the radiotracer was adjusted using cold ^natCu-Tz-SarAr such that the molar ratio of Tzinjected:huA^33injected=1:1. Animals (n=4 per group) were euthanized by CO2(g) asphyxiation at 1, 4, 12, and 24 h after injection. After asphyxiation, 13 tissues were removed, rinsed in water, dried in air for 5 min, weighed, and counted in a gamma counter calibrated for ^64Cu. Counts were converted into activity using a calibration curve generated from known standards. Count data were background- and decay-corrected to the time of injection, and the percent injected dose per gram (% ID/g) for each tissue sample was calculated by normalization to the total activity injected. Contents within the stomach, small intestine, and large intestine were not removed for the measurements.
Contents within the stomach, small intestine, and large intestine were not removed for the measurements. […] Zeglis, B. M. et al. “A pretargeted PET imaging strategy based on bioorthogonal Diels-Alder click chemistry.” Journal of Nuclear Medicine. 54, 1389-1396 (2013). ©2013 by the Society of Nuclear Medicine and Molecular Imaging, Inc.
Zeglis, B. M. et al. “A pretargeted PET imaging strategy based on bioorthogonal Diels-Alder click chemistry.” Journal of Nuclear Medicine. 54, 1389-1396 (2013). ©2013 by the Society of Nuclear Medicine and Molecular Imaging, Inc.
(§1) Female athymic nude mice bearing subcutaneous SW1222 (right shoulder) xenografts (100-150 mm^3, 18-21 days post-inoculation) were administered 100 μg (0.66 nmol) huA33-TCO (in 200 μL 0.9% sterile saline) via intravenous tail vein injection. After an accumulation interval of 48 h, the same mice were then administered ^64Cu-Tz-SarAr (300-350 μCi in 200 μL 0.9% sterile saline) via intravenous tail vein injection (t=0). The specific activity of the radiotracer was adjusted using cold ^natCu-Tz-SarAr such that the molar ratio of Tzinjected:huA^33injected=1:1. Animals (n=4 per group) were euthanized by CO2(g) asphyxiation at 1, 4, 12, and 24 h after injection. After asphyxiation, tissues were removed, rinsed in water, dried in air for 5 min, weighed, and counted in a gamma counter calibrated for ^64Cu. Counts were converted into activity using a calibration curve generated from known standards. Count data were background- and decay-corrected to the time of injection, and the percent injected dose per gram (% ID/g) for each tissue sample was calculated by normalization to the total activity injected. Contents within the stomach, small intestine, and large intestine were not removed for the measurements.
as §1, with “120” for “48”, “Contents within the stomach, small intestine, and large intestine were not removed for the measurements.” left out

[1] = 24 h accumulation interval, 1 h p.i.
[2] = 24 h accumulation interval, 4 h p.i.
[3] = 24 h accumulation interval, 12 h p.i.
[4] = 24 h accumulation interval, 24 h p.i.
[5] = 48 h accumulation interval, 1 h p.i.
[6] = 48 h accumulation interval, 4 h p.i.

SMILES: NC12CNCCNCC(NCc3ccc(CNC(=O)CCCC(=O)NCc4ccc(-c5nncnn5)cc4)cc3)(CNCCNC1)CNCCNC2.[64Cu+2] [^64Cu-Tz-SarAr]
- Blood activity concentration [1]: 4.2±0.8 % ID/g and 4.20 ± 0.80^a % ID/g
- Bone activity concentration [1]: 0.67 ± 0.14 % ID/g
- Heart activity concentration [1]: 1.81 ± 0.46 % ID/g
- Kidney activity concentration [1]: 3.1±0.3 % ID/g and 3.08 ± 0.28 % ID/g
- Large Intestine activity concentration [1]: 0.21±0.09 % ID/g
- Liver activity concentration [1]: 1.60 ± 0.12 % ID/g
- Lung activity concentration [1]: 1.65 ± 0.51 % ID/g
- Muscle activity concentration [1]: 0.38 ± 0.06 % ID/g
- Small Intestine activity concentration [1]: 0.88 ± 0.09 % ID/g
- Spleen activity concentration [1]: 0.98 ± 0.25 % ID/g
- Stomach activity concentration [1]: 0.73 ± 0.19 % ID/g
- Tumor activity concentration [1]: 5.63±0.67 % ID/g
- Tumor/Blood activity concentration ratio [1]: 1.34 ± 0.3
- Tumor/Bone activity concentration ratio [1]: 8.43 ± 2.07
- Tumor/Heart activity concentration ratio [1]: 3.11 ± 0.87
- Tumor/Kidney activity concentration ratio [1]: 1.83 ± 0.27
- Tumor/Large Intestine activity concentration ratio [1]: 26.88 ± 12.11
- Tumor/Liver activity concentration ratio [1]: 3.52 ± 0.49
- Tumor/Lung activity concentration ratio [1]: 3.40 ± 1.12
- Tumor/Muscle activity concentration ratio [1]: 14.9±2.9 and 14.92 ± 2.85
- Tumor/Small Intestine activity concentration ratio [1]: 6.42 ± 1.01
- Tumor/Spleen activity concentration ratio [1]: 5.75 ± 1.61
- Tumor/Stomach activity concentration ratio [1]: 7.75 ± 2.24
- Blood activity concentration [2]: 4.0±0.37 % ID/g
- Bone activity concentration [2]: 0.34 ± 0.18 % ID/g
- Heart activity concentration [2]: 1.45 ± 0.03 % ID/g
- Kidney activity concentration [2]: 2.77 ± 0.57 % ID/g
- Large Intestine activity concentration [2]: 0.48 ± 0.09 % ID/g
- Liver activity concentration [2]: 1.45 ± 0.21 % ID/g
- Lung activity concentration [2]: 1.55 ± 0.45 % ID/g
- Muscle activity concentration [2]: 0.37 ± 0.07 % ID/g
- Small Intestine activity concentration [2]: 0.62 ± 0.06 % ID/g
- Spleen activity concentration [2]: 0.81 ± 0.20 % ID/g
- Stomach activity concentration [2]: 0.56 ± 0.20 % ID/g
- Tumor activity concentration [2]: 5.56±0.91 % ID/g and 5.6±0.9 % ID/g
- Tumor/Blood activity concentration ratio [2]: 1.39 ± 0.26
- Tumor/Bone activity concentration ratio [2]: 16.15 ± 8.89
- Tumor/Heart activity concentration ratio [2]: 3.84 ± 0.63
- Tumor/Kidney activity concentration ratio [2]: 2.00 ± 0.53
- Tumor/Large Intestine activity concentration ratio [2]: 11.65 ± 2.99
- Tumor/Liver activity concentration ratio [2]: 3.83 ± 0.83
- Tumor/Lung activity concentration ratio [2]: 3.59 ± 1.20
- Tumor/Muscle activity concentration ratio [2]: 14.84 ± 3.69
- Tumor/Small Intestine activity concentration ratio [2]: 8.96 ± 1.71
- Tumor/Spleen activity concentration ratio [2]: 6.88 ± 2.01
- Tumor/Stomach activity concentration ratio [2]: 9.91 ± 3.85
- Blood activity concentration [3]: 2.19 ± 0.39 % ID/g
- Bone activity concentration [3]: 0.23 ± 0.05 % ID/g
- Heart activity concentration [3]: 0.84 ± 0.1 % ID/g
- Kidney activity concentration [3]: 1.87 ± 0.42 % ID/g
- Large Intestine activity concentration [3]: 0.20 ± 0.04 % ID/g
- Liver activity concentration [3]: 1.33 ± 0.53 % ID/g
- Lung activity concentration [3]: 1.24 ± 0.22 % ID/g
- Muscle activity concentration [3]: 0.15 ± 0.01 % ID/g
- Small Intestine activity concentration [3]: 0.35 ± 0.08 % ID/g
- Spleen activity concentration [3]: 0.65 ± 0.17 % ID/g
- Stomach activity concentration [3]: 0.21 ± 0.1 % ID/g
- Tumor activity concentration [3]: 6.74±1.26 % ID/g
- Tumor/Bone activity concentration ratio [3]: 29.8 ± 8.38
- Tumor/Heart activity concentration ratio [3]: 8.01 ± 1.77
- Tumor/Kidney activity concentration ratio [3]: 3.61 ± 1.05
- Tumor/Large Intestine activity concentration ratio [3]: 33.67±8.82
- Tumor/Liver activity concentration ratio [3]: 5.06 ± 2.23
- Tumor/Lung activity concentration ratio [3]: 5.43 ± 1.41
- Tumor/Small Intestine activity concentration ratio [3]: 19.37 ± 5.95
- Tumor/Spleen activity concentration ratio [3]: 10.34 ± 3.27
- Tumor/Stomach activity concentration ratio [3]: 31.76 ± 16.62
- Blood activity concentration [4]: 2.61 ± 0.20 % ID/g
- Bone activity concentration [4]: 0.29 ± 0.05 % ID/g
- Heart activity concentration [4]: 0.81 ± 0.04 % ID/g
- Kidney activity concentration [4]: 1.9±0.4 % ID/g and 2.00 ± 0.24 % ID/g
- Large Intestine activity concentration [4]: 0.26 ± 0.06 % ID/g
- Liver activity concentration [4]: 1.51 ± 0.2 % ID/g
- Lung activity concentration [4]: 0.99 ± 0.24 % ID/g
- Muscle activity concentration [4]: 0.20 ± 0.07 % ID/g
- Small Intestine activity concentration [4]: 0.45 ± 0.07 % ID/g
- Spleen activity concentration [4]: 0.64 ± 0.04 % ID/g
- Stomach activity concentration [4]: 0.28 ± 0.07 % ID/g
- Tumor activity concentration [4]: 7.38 ± 2.02 % ID/g
- Tumor/Blood activity concentration ratio [4]: 2.83±0.81
- Tumor/Bone activity concentration ratio [4]: 25.46 ± 8.22
- Tumor/Heart activity concentration ratio [4]: 9.10 ± 2.54
- Tumor/Kidney activity concentration ratio [4]: 3.68 ± 1.1
- Tumor/Large Intestine activity concentration ratio [4]: 28.86 ± 10.28
- Tumor/Liver activity concentration ratio [4]: 4.87 ± 1.48
- Tumor/Lung activity concentration ratio [4]: 7.44 ± 2.74
- Tumor/Muscle activity concentration ratio [4]: 37.37±16.1 and 37.37 ± 16.06
- Tumor/Small Intestine activity concentration ratio [4]: 16.33 ± 5.12
- Tumor/Spleen activity concentration ratio [4]: 11.45 ± 3.20
- Tumor/Stomach activity concentration ratio [4]: 26.44 ± 9.89
- activity concentration in all other non-target tissues (24 h accumulation interval, later time points, other than blood and kidneys): less than 1.5 % ID/g
- Blood activity concentration [5]: 2.15 ± 0.5 % ID/g
- Bone activity concentration [5]: 0.23 ± 0.05 % ID/g
- Heart activity concentration [5]: 1.05 ± 0.24 % ID/g
- Kidney activity concentration [5]: 1.98 ± 0.26 % ID/g
- Large Intestine activity concentration [5]: 0.29 ± 0.09 % ID/g
- Liver activity concentration [5]: 1.79 ± 0.09 % ID/g
- Lung activity concentration [5]: 1.68 ± 0.09 % ID/g
- Muscle activity concentration [5]: 0.22 ± 0.11 % ID/g
- Small Intestine activity concentration [5]: 0.54 ± 0.15 % ID/g
- Spleen activity concentration [5]: 0.84 ± 0.27 % ID/g
- Stomach activity concentration [5]: 0.39 ± 0.17 % ID/g
- Tumor activity concentration [5]: 4.49 ± 0.44 % ID/g
- Tumor/Blood activity concentration ratio [5]: 2.09 ± 0.52
- Tumor/Bone activity concentration ratio [5]: 19.48 ± 4.94
- Tumor/Heart activity concentration ratio [5]: 4.27 ± 1.05
- Tumor/Kidney activity concentration ratio [5]: 2.27 ± 0.37
- Tumor/Large Intestine activity concentration ratio [5]: 15.48 ± 5.25
- Tumor/Liver activity concentration ratio [5]: 2.51 ± 0.27
- Tumor/Lung activity concentration ratio [5]: 2.67 ± 0.3
- Tumor/Muscle activity concentration ratio [5]: 20.34 ± 10.25
- Tumor/Small Intestine activity concentration ratio [5]: 8.35 ± 2.48
- Tumor/Spleen activity concentration ratio [5]: 5.34 ± 1.79
- Tumor/Stomach activity concentration ratio [5]: 11.57 ± 5.25
- Blood activity concentration [6]: 1.78±0.28 % ID/g
- Bone activity concentration [6]: 0.32 ± 0.12 % ID/g
- Heart activity concentration [6]: 1.08 ± 0.32 % ID/g
- Kidney activity concentration [6]: 1.83 ± 0.57 % ID/g
- Large Intestine activity concentration [6]: 0.41 ± 0.11 % ID/g
- Liver activity concentration [6]: 1.27 ± 0.19 % ID/g
- Lung activity concentration [6]: 1.53 ± 0.28 % ID/g
- Muscle activity concentration [6]: 0.24 ± 0.08 % ID/g
- Small Intestine activity concentration [6]: 0.33 ± 0.1 % ID/g
- Spleen activity concentration [6]: 0.6 ± 0.09 % ID/g
- Stomach activity concentration [6]: 0.27 ± 0.18 % ID/g
- Tumor activity concentration [6]: 5.2±1.4 % ID/g and 5.15 ± 1.42 % ID/g
- Tumor/Blood activity concentration ratio [6]: 2.9 ± 0.92
- Tumor/Bone activity concentration ratio [6]: 15.86 ± 7.12
- Tumor/Heart activity concentration ratio [6]: 4.75 ± 1.92
- Tumor/Kidney activity concentration ratio [6]: 2.81 ± 1.16
- Tumor/Large Intestine activity concentration ratio [6]: 12.68 ± 4.87
- Tumor/Liver activity concentration ratio [6]: 4.06 ± 1.27
- Tumor/Lung activity concentration ratio [6]: 3.37 ± 1.11
- Tumor/Muscle activity concentration ratio [6]: 21.84 ± 9.2
- Tumor/Small Intestine activity concentration ratio [6]: 15.71 ± 6.48
- Tumor/Spleen activity concentration ratio [6]: 8.55 ± 2.69
- Tumor/Stomach activity concentration ratio [6]: 18.92 ± 13.29
